The numbers were not newly measured in PMC2099433, “The binding site for neohesperidin dihydrochalcone at the human sweet taste receptor” (BMC Structural Biology, 2007), which cites them from elsewhere.

The test system of data set [1] is sweet taste. Also on record: method as in PMID 831282, PMID 14403185. The following applies: cited from earlier work.
Data set [2] concerns sweet taste. Also on record: method as in PMID 10480680. The following applies: humans; cited from earlier work.

Turning to `COc1ccc(CCC(=O)c2c(O)cc(O)cc2O)cc1O` [hesperitin dihydrochalcone], in the data set on sweet taste [1], the taste result is listed as “tastes sweet”.
In the case of `COc1ccc(OC(C)C(=O)O)cc1` (centres unmarked) [lactisole], the “inhibition of the sweet taste of NHDC” value in the data set with sweet taste [2] is recorded as “did not inhibit the sweet taste of NHDC”.
